Values of other authors as cited in US20250090614A1, “COMPOSITIONS AND METHODS FOR IMPROVING LUNG FUNCTION” (priority 2023, published 2025).

Legend:
senescent lung cells = settings: mouse model, Palazzo et al. 2023; cited from earlier work
[1] = system: Idiopathic pulmonary fibrosis (IPF); settings: Dasatinib and Quercetin given together, pilot study, Justice et al. 2019; cited from earlier work

**Q.** Which lung emphysema (senescent lung cells) does the source give for COC(=O)C1=C(C)NC(C)=C(C(=O)OC2CCCN(Cc3ccccc3)C2)C1c1cccc([N+](=O)[O-])c1 (stereo not drawn) [Benidipine] here?
**A.** ameliorates

**Q.** What about the senescent lung cells (senescent lung cells) of the same compound?
**A.** decrease

**Q.** With O=c1c(O)c(-c2ccc(O)c(O)c2)oc2cc(O)cc(O)c12 [Quercetin] as the compound, how does the “physical dysfunction in Idiopathic pulmonary fibrosis (IPF)” value [1] read?
**A.** showed promise
